Source: patent US20250382277A1, “SMALL MOLECULE INHIBITORS OF DYRK/CLK AND USES THEREOF” (Arizona Board of Regents on Behalf of the University of …, priority 2022, published 2025)
Structures can show the parent of a compound that is named as a salt.

Key:
[1] = target: T1, DYRK1A (Homo sapiens, UniProt Q13627); assay: KdELECT Kinase Assay Panel (Eurofins) binding affinity; conditions: read-out: DYRK1A Kd, duplicate 11-point dose-response curves
Description: (§1) KDs were obtained from Eurofins. The KdELECT Kinase Assay Panel enables quantitated compound binding affinity against any kinase assay. Inhibitor binding constants (Kd values) are calculated from duplicate 11-point dose-response curves. Measurements are made under optimized conditions that generate true thermodynamic Kd values which facilitate direct comparison of inhibitor affinity across kinases.

[2] = test system: WNT signaling; assay: WNT reporter assay (TopGFP reporter); format: cell-based; conditions: Human Colonic Epithelial Cells (HCEC) with TopGFP reporter, stimulated with 10 μM CHIR99021, 24 hours
Description: KDs were obtained from Eurofins.

[3] = target: T1, DYRK1A; assay: biochemical
Description: as §1

| Compound | Kd [1] | EC50 [2] | Kd [3] |
| --- | --- | --- | --- |
| 1-(5-(4-(6-(2-aminopyridin-4-yl)quinazolin-4-yl)-2-fluorophenyl)hexahydropyrrolo[3,4-c]pyrrol-2(1H)-yl)ethan-1-one [Compound 46] | < 100 nM |  |  |
| CCN1CCN(c2ccc(-c3ncnc4ccc(-c5ccnc(N)c5)cc34)cc2F)CC1 [Compound 36, 4-(4-(4-(4-ethylpiperazin-1-yl)-3-fluorophenyl)quinazolin-6-yl)pyridin-2-amine] |  | 100 to 1000 nM | < 100 nM |
| CC(C)N1CCN(c2ccc(-c3ncnc4ccc(-c5ccnc(N)c5)cc34)cc2F)CC1 [Compound 50, 4-(4-(3-fluoro-4-(4-isopropylpiperazin-1-yl)phenyl)quinazolin-6-yl)pyridin-2-amine] |  | 100 to 1000 nM | < 100 nM |
| Nc1cc(-c2ccc3ncnc(-c4ccc(N5C[C@@H]6C[C@H]5CO6)c(F)c4)c3c2)ccn1 [Compound 29, 4-(4-(4-((1S,4S)-2-oxa-5-azabicyclo[2.2.1]heptan-5-yl)-3-fluorophenyl)quinazolin-6-yl)pyridin-2-amine] |  | 100 to 1000 nM | < 100 nM |
| Nc1cc(-c2ccc3ncnc(-c4ccc(N5CCNCC5)c(F)c4)c3c2)ccn1 [Compound 35, 4-(4-(3-fluoro-4-(piperazin-1-yl)phenyl)quinazolin-6-yl)pyridin-2-amine] |  | 100 to 1000 nM | < 100 nM |
| Nc1cc(-c2ccc3ncnc(-c4cnc(N5CCOCC5)c(F)c4)c3c2)ccn1 [Compound 11, 4-(4-(5-fluoro-6-morpholinopyridin-3-yl)quinazolin-6-yl)pyridin-2-amine] |  | 100 to 1000 nM | < 100 nM |
| CC(=O)N1CC2(C1)CN(c1ccc(-c3ncnc4ccc(-c5ccnc(N)c5)cc34)cc1)C2 [Compound 44, 41-(6-(4-(6-(2-aminopyridin-4-yl)quinazolin-4-yl)phenyl)-2,6-diazaspiro[3.3]heptan-2-yl)ethan-1-one] |  | 100 to 1000 nM | < 100 nM |
| Nc1cc(-c2ccc3ncnc(-c4cnc(N5CCC(N6CCOCC6)CC5)c(F)c4)c3c2)ccn1 [Compound 19, 4-(4-(5-fluoro-6-(4-morpholinopiperidin-1-yl)pyridin-3-yl)quinazolin-6-yl)pyridin-2-amine] |  | 100 to 1000 nM | < 100 nM |
| Nc1cc(-c2ccc3ncnc(-c4ccnc(N5CCOCC5)c4)c3c2)ccn1 [Compound 14, 4-(4-(2-morpholinopyridin-4-yl)quinazolin-6-yl)pyridin-2-amine] |  | > 1000 nM | < 100 nM |
| Nc1cc(-c2ccc3ncnc(-c4cccc(N5CCOCC5)c4)c3c2)ccn1 [Compound 4, 4-(4-(3-morpholinophenyl)quinazolin-6-yl)pyridin-2-amine] |  | > 1000 nM | < 100 nM |
| CC(C)CN1CCN(c2ccc(-c3ncnc4ccc(-c5ccnc(N)c5)cc34)cc2F)CC1 [Compound 48, 4-(4-(3-fluoro-4-(4-isobutylpiperazin-1-yl)phenyl)quinazolin-6-yl)pyridin-2-amine] |  | < 100 nM | < 100 nM |
| Nc1nccc(-c2ccc3ncnc(-c4ccc(N5CCOCC5)c(F)c4)c3c2)n1 [Compound 15, 4-(4-(3-fluoro-4-morpholinophenyl)quinazolin-6-yl)pyrimidin-2-amine] |  | 100 to 1000 nM | < 100 nM |
| Nc1cc(-c2ccc3ncnc(-c4cccc(CN5CCOCC5)c4)c3c2)ccn1 [Compound 8, 4-(4-(3-(morpholinomethyl)phenyl)quinazolin-6-yl)pyridin-2-amine] |  | > 1000 nM | < 100 nM |
| Nc1cc(-c2ccc3ncnc(-c4ccc(N5CCN(C6CCOCC6)CC5)c(F)c4)c3c2)ccn1 [Compound 55, 4-(4-(3-fluoro-4-(4-(tetrahydro-2H-pyran-4-yl)piperazin-1-yl)phenyl)quinazolin-6-yl)pyridin-2-amine] |  | < 100 nM | < 100 nM |
| Nc1cc(-c2ccc3ncnc(-c4cnc(N5CCNCC5)c(F)c4)c3c2)ccn1 [Compound 24, 4-(4-(5-fluoro-6-(piperazin-1-yl)pyridin-3-yl)quinazolin-6-yl)pyridin-2-amine hydrochloride] |  | > 1000 nM | < 100 nM |
| Nc1cc(-c2ccc3ncnc(-c4ccc(CN5CCOCC5)c(F)c4)c3c2)ccn1 [Compound 3, 4-(4-(3-fluoro-4-(morpholinomethyl)phenyl)quinazolin-6-yl)pyridin-2-amine] |  | 100 to 1000 nM | < 100 nM |
| CC(=O)N1CCN(c2ccc(-c3ncnc4ccc(-c5ccnc(N)c5)cc34)cc2F)CC1 [Compound 34, 1-(4-(4-(6-(2-aminopyridin-4-yl)quinazolin-4-yl)-2-fluorophenyl)piperazin-1-yl)ethan-1-one] |  | 100 to 1000 nM | < 100 nM |
| CN1CCN(c2ncc(-c3ncnc4ccc(-c5c[nH]c6ncccc56)cc34)cc2F)CC1 [Compound 26, 4-(5-fluoro-6-(4-methylpiperazin-1-yl)pyridin-3-yl)-6-(1H-pyrrolo[2,3-b]pyridin-3-yl)quinazoline] |  | 100 to 1000 nM | < 100 nM |
| CC(C)(C)N1CCN(c2ccc(-c3ncnc4ccc(-c5ccnc(N)c5)cc34)cc2F)CC1 [Compound 45, 4-(4-(4-(4-(tert-butyl)piperazin-1-yl)-3-fluorophenyl)quinazolin-6-yl)pyridin-2-amine] |  | 100 to 1000 nM | < 100 nM |
| Nc1cc(-c2ccc3ncnc(-c4ccc(N5CCN(C6COC6)CC5)c(F)c4)c3c2)ccn1 [Compound 56, 4-(4-(3-fluoro-4-(4-(oxetan-3-yl)piperazin-1-yl)phenyl)quinazolin-6-yl)pyridin-2-amine] |  | < 100 nM | < 100 nM |
| CC1(C)CN(c2ncc(-c3ncnc4ccc(-c5ccnc(N)c5)cc34)cc2F)CCO1 [Compound 20, 4-(4-(6-(2,2-dimethylmorpholino)-5-fluoropyridin-3-yl)quinazolin-6-yl)pyridin-2-amine] |  | > 1000 nM | < 100 nM |
